Assay results from patent US20240053332A1, “Methods and Compositions Utilising Vitamin B12 Binding” (priority 2020, published 2024).

Tests used:
[1] = system: Bacteroides thetaiotaomicron (Bt); test: growth of Bt dependent upon vitB12; assay type: cell-based
Procedure: Less growth is seen with serial 10-fold dilutions of B12-bound BEVs. By contrast and as controls, no growth is seen by adding 1 mM vitB12 directly to the cultures or by adding BEVs alone with no bound vitB12.

BtuG2 = test: affinity of BtuG2 protein for B12; assay type: binding
Text: We believe that it is possible to exploit this tight interaction in the same way as the Biotin-avidin system. We have shown that it is possible to attach protein-linkers to vitamin B12, allow vitamin B12 to become attached to proteins that have the necessary exposed amino acid side chains. […] The attachment is specific and strong. • (b) With Mologic, we have shown that a B12-maleimide will bind to a lactate dehydrogenase antibody, allowing the complex to be used in an immunoassay. This provides the proof of principal that the B12-B12 binding protein system can be exploited in therapeutic assays and diagnostics in the same way as biotin-avidin.

Question: With cobalamin [vitB12] as the substance, how does the “growth of Bt in vitB12-deficient media” value ([1]; FIG. 1 left panel, 1 mM vitB12, bound to BEVs or added directly to the cultures) read?
Answer: The value was “no growth”.

Question: And the “vitB12 concentration giving maximal growth of Bt” value ([1]; FIG. 1 right panel, no growth in its absence (0 nM))?
Answer: Its value is 100 nM.

Question: What about the “affinity of BtuG2 for B12” value (BtuG2) of the same substance?
Answer: Its value is “femtomolar region”.
